# What was measured:
# [1] = test system: diethyl nitrosamine (DEN) cirrhotic rat model of liver fibrosis; experiment: DEN induced cirrhosis in rats, study 2: Sirius red quantification of liver fibrosis; type: in vivo
# Experimental: A second in vivo experiment, with the same diethyl nitrosamine (DEN) cirrhotic rat animal model of liver fibrosis, was performed including compound 2-2 (base form of compound 2-3) with discontinued oral dosing schedule and compound 5-3 with daily oral exposure. Compounds 2-2 and 5-3 were administered p.o. by gavage (oral gavage) once daily during 7 weeks.
# Rats were treated with DEN for 13 weeks (intra-peritoneal injections (i.p.) of 50 mg/kg/week) and then treated according to the Table 10 dosage schedule during 7 weeks. At the end of the study, all animals were sacrificed using CO2 and rat livers were collected for analysis. The quantification of the liver fibrotic tissue was evaluated by Sirius red staining of rat liver sections.
# Group 1 contained 6 animals which were daily dosed (q.d.) by oral gavage (per os, p.o.) with the vehicle during 7 weeks.
# Group 2 contained 8 animals and the corresponding animals were daily dosed (q.d.) by oral gavage (per os, p.o.) with compound 2-2 during 4 weeks at 20 mg/kg/day and then during 3 weeks at 20 mg/kg every 2 days (q.o.d.: quaque altera die, one day treated, on day untreated).
# Group 3 contained 8 animals and the corresponding animals were daily dosed (q.d.) by oral gavage (per os, p.o.) with compound 2-2 during 3 weeks at 20 mg/kg/day, then 2 weeks of treatment free period, and were then daily dosed (q.d.) by oral gavage (per os, p.o.) with compound 2-2 during 2 weeks at 20 mg/kg/day.
# Group 4 contained 8 animals and the corresponding animals were daily dosed (q.d.) by oral gavage (per os, p.o.) with compound 5-3 during 4 weeks at 20 mg/kg/day, and were then daily dosed (q.d.) by oral gavage (per os, p.o.) with compound 5-3 during 3 weeks at 15 mg/kg/day.
# Compound 2-2 and 5-3 were formulated in water for injection acidified with hydrochloric acid to pH 4.
# [2] = test system: autophagy flux (LC3-II) in RBE cell line; experiment: Autophagy flux, LC3-II immunoblot with/without Bafilomycin, RBE cell line; type: cell-based; details: 24 hours of treatment
# Experimental: The capacity of compound 2-2 to modulate the cellular autophagy processes was also evaluated in the intrahepatic cholangiocarcinoma cell line RBE.
# The RBE cell line was maintained in RPMI (Roswell Park Memorial Institute) 1640 (Cat #L0498-500, Dutscher) containing 1% penicillin-streptomycin (Cat #P06-07100, Dutscher) and 10% FBS (Cat #SV30160.03C, Dutscher). RBE Cells line were cultured at 37° C. with 5% CO2.
# The day before the experiment, 6-well plates with 125,000 cells in 1.8 mL of medium per well were prepared.
# Compound 2-2 was dissolved with filtrated DMSO to make a 10 mM stock solution and serial working solutions (10× solutions) at 9 μM, 18 μM and 36 μM were prepared with the diluent (=culture medium with 0.12% DMSO) to maintain a constant percentage of DMSO. Bafilomycin [CAS 88899-55-2] (Cat #B1793-10UG, Sigma) was dissolved with DMSO to make a 160.6 μM stock solution and a working solution (200× solution) was prepared with the culture medium at 20.1 μM. A “Baf diluent” solution corresponding to the dilution of DMSO in the Bafilomycin 200× solution (culture medium with 12.5% DMSO) is also prepared. […]
# After 24 hours of cell line treatment, the medium was removed from each well. […] Total protein concentration was assessed using the BCA reagent (Cat #23227, ThermoFischer) and cellular lysates were stored at −80° C. until western-blot analysis. […]
structure (smiles),measurement,setting,value
"CC(C)(C)NC1CCN(c2cc(NCc3ccc(Cl)cc3)nc3ccccc23)CC1 [2-2, 2-(4-chlorobenzylamino)-4-(4-tert-butylaminopiperidin-1-yl)-quinoline]",reduction of the level of collagen fibers deposition (Sirius red) compared to the control group,"[1]; group 2 (20 qd/qod): 20 mg/kg p.o. q.d. 4 weeks then q.o.d. 3 weeks, after 13 weeks DEN, p=0.04",23%
same,reduction of the level of collagen fibers deposition (Sirius red) compared to the control group,"[1]; group 3 (20 3WON/2WOFF/2WON): 20 mg/kg p.o. q.d. 3 weeks, 2 weeks off, q.d. 2 weeks, p=0.01",29%
same,accumulation of the LC3-II form,[2],significantly induced a dose-dependent accumulation of the LC3-II form
same,autophagic flux (LC3-II Baf+/Baf− ratio),[2],induced an inhibition of the autophagic flux

# Reference: patent US11261189B2, “Substituted 2,4 diamino-quinoline as new medicament for fibrosis, autophagy and cathepsins B (CTSB), L (CTSL) and D (CTSD) related diseases” (Genoscience Pharma, priority 2018, dated 2022)
